Test results reported in the supplement of paper PMC10307832.

What was measured:
Assay in all cases: relative viability (nuclei count vs DMSO), 5 days (fraction); higher = more cells survive
[1] = compound: C[C@]12O[C@H](C[C@]1(O)CO)n1c3ccccc3c3c4c(c5c6ccccc6n2c5c31)CNC4=O [Lestaurtinib] + Nc1ncn([C@H]2C[C@H](O)[C@@H](CO)O2)c(=O)n1 [Decitabine] (partner 2 µM)
How it was run: (§1)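 Lung cancer cell lines in 1536-well plates got either a single drug or a fixed anchor-drug dose together with five library-drug doses (not always all listed) in √10 steps, by pin tool, on the day after seeding. Nuclei were counted after 5 days, and relative viability is the treated-to-vehicle ratio of nuclei counts. Values are medians of duplicate plates.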

[2] = compound: C[C@]12O[C@H](C[C@]1(O)CO)n1c3ccccc3c3c4c(c5c6ccccc6n2c5c31)CNC4=O [Lestaurtinib] + C[C@]1(O)C[C@@H](c2nc(-c3ccc4ccc(-c5ccccc5)nc4c3)c3c(N)nccn32)C1 [Linsitinib] (partner 1 µM)
How it was run: as §1

TPCA-1 + OSI-027 = compound: C1=CC(=CC=C1C2=CC(=C(S2)NC(=O)N)C(=O)N)F [TPCA-1] + COc1cccc2cc(-c3nc([C@H]4CC[C@H](C(=O)O)CC4)n4ncnc(N)c34)[nH]c12 [OSI-027] (partner 0.5 µM)
How it was run: as §1

[3] = compound: C1/C(=C\C2=CC=CS2)/C(=O)/C(=C/C3=CC=CS3)/C1 + Cc1cc(Nc2cc(N3CCN(C)CC3)nc(Sc3ccc(NC(=O)C4CC4)cc3)n2)n[nH]1 [Tozasertib] (partner 0.1 µM)
How it was run: as §1

Cell Line	relative viability ([1]; first compound 0.005 µM)	relative viability ([1]; first compound 0.01581 µM)	relative viability ([1]; first compound 0.05 µM)	relative viability ([1]; first compound 0.1581 µM)	relative viability ([1]; first compound 0.5 µM)	relative viability ([2]; first compound 0.005 µM)	relative viability ([2]; first compound 0.01581 µM)	relative viability ([2]; first compound 0.05 µM)	relative viability ([2]; first compound 0.1581 µM)	relative viability ([2]; first compound 0.5 µM)	relative viability (TPCA-1 + OSI-027; first compound 0.04 µM)	relative viability (TPCA-1 + OSI-027; first compound 0.1265 µM)	relative viability (TPCA-1 + OSI-027; first compound 0.4 µM)	relative viability (TPCA-1 + OSI-027; first compound 1.265 µM)	relative viability (TPCA-1 + OSI-027; first compound 4 µM)	relative viability ([3]; first compound 0.2 µM)	relative viability ([3]; first compound 0.6325 µM)	relative viability ([3]; first compound 2 µM)	relative viability ([3]; first compound 6.325 µM)	relative viability ([3]; first compound 20 µM)
LCLC-103H	0.783	0.79	0.687	0.534	0.703	1.07	1.12	0.697	0.705	0.6	0.458	0.44	0.485	0.443	0.387	0.485	0.47	0.517	0.465	0.451
HCC-15	0.747	0.843	0.683	0.385	0.191	0.98	0.958	0.71	0.529	0.159	0.831	0.492	0.677	0.504	0.262	0.422	0.497	0.367	0.397	0.357
H3255	0.792	0.565	0.562	0.512	0.366	0.986	1.07	0.864	0.668	0.457	0.674	0.578	0.592	0.463	0.483	0.714	0.617	0.566	0.537	0.546
NCI-H596	1.04	1.55	0.936	1.26	1.07	1.04	1.01	0.882	1.21	0.907	0.717	0.584	0.678	0.787	0.389	0.726	0.865	1.11	0.855	0.995
NCI-H2087	0.289	0.338	0.258	0.207	0.206	1	0.923	0.709	0.648	0.275	0.554	0.444	0.537	0.414	0.207	0.404	0.257	0.257	0.201	0.225
NCI-H661	0.552	0.59	0.52	0.502	0.33	0.543	0.609	0.556	0.474	0.262	0.734	0.665	0.749	0.607	0.39	0.324	0.361	0.374	0.308	0.36
EMC-BAC-2	0.955	1.04	1.01	0.659	0.418	0.764	0.801	0.641	0.45	0.221	0.383	0.38	0.45	0.221	0.265	0.267	0.339	0.298	0.293	0.48
NCI-H1355	0.389	0.349	0.329	0.311	0.344	0.795	0.838	0.546	0.451	0.302	0.466	0.365	0.414	0.313	0.234	0.565	0.577	0.603	0.562	0.48
NCI-H23	0.349	0.315	0.339	0.295	0.228	0.509	0.604	0.387	0.463	0.233	0.599	0.574	0.514	0.429	0.149	0.374	0.394	0.373	0.421	0.323
NCI-H1651	0.63	0.775	0.59	0.653	0.406	0.985	1.06	0.969	0.695	0.438	0.756	0.612	0.648	0.741	0.544	0.731	0.671	0.837	0.596	0.718
NCI-H1975	0.395	0.39	0.356	0.36	0.338	1.09	0.967	0.717	0.537	0.302	0.836	0.737	0.676	0.633	0.295	0.71	0.742		0.678	0.699
COR-L23	0.487	0.511	0.384	0.354	0.153	1	0.858		0.471	0.153	0.749	0.706	0.823	0.683	0.286	0.223	0.203	0.197	0.185	0.193
HCC-44	0.967	0.963	0.926	1.1	0.745	0.597	0.725	0.577	0.88	0.366	0.64	0.462	0.503		0.495	1.04	0.609	0.928	0.837	0.923
LOU-NH91	0.818	0.816	0.804	0.679	0.659	0.912	0.887	0.773	0.603	0.45	0.75	0.662	0.735	0.793	0.73	0.755	0.705	0.657	0.604	0.596
NCI-H441	0.255	0.124	0.233	0.247	0.253	0.446	0.547	0.182	0.339	0.27	0.841	0.443	0.511	0.302	0.201	0.657	0.614	0.613	0.631	0.528
NCI-H647	0.415	0.404	0.337	0.311	0.173	1.08	0.818	0.828	0.265	0.311	0.633	0.573	0.602	0.55	0.245	0.382	0.379	0.296	0.271	0.238

Cell Line	relative viability ([1]; first compound 0.005 µM)	relative viability ([1]; first compound 0.01581 µM)	relative viability ([1]; first compound 0.05 µM)	relative viability ([1]; first compound 0.1581 µM)	relative viability ([1]; first compound 0.5 µM)	relative viability ([2]; first compound 0.005 µM)	relative viability ([2]; first compound 0.01581 µM)	relative viability ([2]; first compound 0.05 µM)	relative viability ([2]; first compound 0.1581 µM)	relative viability ([2]; first compound 0.5 µM)	relative viability (TPCA-1 + OSI-027; first compound 0.04 µM)	relative viability (TPCA-1 + OSI-027; first compound 0.1265 µM)	relative viability (TPCA-1 + OSI-027; first compound 0.4 µM)	relative viability (TPCA-1 + OSI-027; first compound 1.265 µM)	relative viability (TPCA-1 + OSI-027; first compound 4 µM)	relative viability ([3]; first compound 0.2 µM)	relative viability ([3]; first compound 0.6325 µM)	relative viability ([3]; first compound 2 µM)	relative viability ([3]; first compound 6.325 µM)	relative viability ([3]; first compound 20 µM)
NCI-H1915	0.275	0.266	0.284	0.263	0.217	1.21	1.09	1.11	0.797	0.565	0.695	0.563	0.676	0.509	0.467	0.428	0.456	0.447	0.422	0.446
NCI-H1734	0.56	0.499	0.442	0.444	0.253	0.95	0.849	0.477	0.545	0.342	0.822	0.477	0.656	0.745	0.33	0.282	0.293	0.263	0.167	0.287
NCI-H1993	0.62	0.666	0.729	0.499	0.428	0.702	0.673	0.713	0.698	0.573	0.544	0.524	0.521	0.536	0.556	0.567	0.556	0.594	0.559	0.506
LK-2	0.281	0.462	0.239	0.224	0.145	0.456	0.847	0.403	0.394	0.176	0.222	0.174	0.232	0.205	0.198	0.157	0.155	0.196	0.168	0.175
HCC-78	0.748	0.884	0.712	0.662	0.441	0.53	0.419	0.413	0.225	0.234	0.411	0.357	0.385	0.335	0.337	0.423	0.593	0.45	0.37	0.454
NCI-H2405	0.728	0.77	0.742	0.638	0.413	0.934	0.703	0.674	0.612	0.241	0.673	0.6	0.65	0.36	0.629	0.775	0.774	0.862	0.72	0.76
HOP-62	0.171	0.231	0.273	0.323	0.211	0.838	0.994	0.995	1.05	0.891	0.872	0.748	0.96	0.574	0.716	0.368	0.39	0.348	0.302	0.39
NCI-H650	0.332	0.362	0.353	0.335	0.326	0.79	0.915	0.503	0.455	0.179	0.533	0.498	0.617	0.286	0.374	0.857	0.716	0.675	0.689	0.786
NCI-H358	0.219	0.212	0.15	0.12	0.144	0.622	0.494	0.311	0.301	0.187	0.808	0.657	0.816	0.52	0.226	0.101	0.096	0.112		0.11
BEN	0.787	0.854	0.688	0.459	0.349	0.949	1.09	0.747	0.778	0.321	0.261	0.269	0.303	0.346	0.242	0.474	0.506	0.506	0.52	0.6
SW 1573	0.562	0.601	0.45	0.352	0.103	0.796	0.841	0.695	0.615	0.222	0.898	0.402	0.641	0.666	0.438	0.175	0.13	0.176	0.158	0.139
SK-MES-1	0.36	0.441	0.321	0.282	0.142	1.04	1.06	0.501	0.485	0.317	0.589	0.567	0.558	0.319	0.211	0.922	0.977	0.942	0.818	0.831
NCI-H1755	0.723	0.791	0.806	0.638	0.559	1.02	1.05	0.776	0.429	0.215	0.755	0.621	0.804	0.539	0.496	0.64	0.583	0.582	0.539	0.549
NCI-H2023	0.241	0.254	0.231	0.183	0.105	0.653	0.709	0.547	0.369	0.208	0.552	0.335	0.364	0.32	0.187	0.428	0.507	0.397	0.346	0.259
LC-2-ad	0.912	0.829	0.755	0.654	0.476	0.824	0.819	0.372	0.323	0.157	0.971	0.753	0.813	0.744	0.407	0.452	0.461	0.448	0.429	0.429
NCI-H1666	0.769	0.807	0.944	0.912	0.704	0.926	1.04	0.847	0.475	0.501	0.856	0.788	0.851	0.883	0.865	0.574	0.658	0.609	0.538	0.538
